Data as given in PMC4997821, “The Lantibiotic NAI-107 Efficiently Rescues Drosophila melanogaster from Infection with Methicillin-Resistant Staphylococcus aureus USA300” (Antimicrobial Agents and Chemotherapy, 2016).
Converted amounts (≈) assume the structure as drawn. Where a name gives a salt, the structure may show the parent alone. Read-outs that look alike come from different tables or passages of the source. Residues, ends and D or L forms follow the SMILES beside them.

Legend:
[1] = test system: Drosophila melanogaster; assay: Survival of uninfected control flies injected with VEH and drug; assay type: in vivo
Method: Injection assays were performed as previously described ([33]) by using a Nanoject-II microinjecter, but with minor modifications in the preparation of bacterial inoculums to obtain balanced cultures, as explained above. Flies were reared on standard Bloomington formulation at 25°C under a 12-h–12-h light-dark cycle and constant humidity. Adult Oregon R male flies (4 to 7 days old) were used for all injection experiments. Initial experiments with strain 8325-4 were performed in duplicate, with groups of 25 to 30 animals in each experiment. For USA300, experiments were performed in triplicate, except for the nisin experiment, which was done only in duplicate. The inoculum was prepared by resuspending cells in 10 mM MgSO4 vehicle (VEH) to an OD600 of 0.06 and was kept on ice, giving an inoculum dose of 100 to 450 CFU (8325-4) or 200 to 700 CFU (USA300) in the flies after injection of 18.4 nl. Bacterial and VEH injections were administered in the soft tissue surrounding the front legs, and drug treatment was administered in the lower thorax at 3 h postinfection. After injection of bacteria, flies were kept at 29°C and monitored for 48 to 96 h to determine mortality. Drug delivery was performed at the concentrations indicated for individual experiments. Flies which died within 3 h postinjection were considered to have died from handling and were disregarded. It is important that when drug concentrations were calculated, we performed a rough approximation of the fluid content of a fly. Fly fluid content was measured by drying out 10 groups of 50 flies each and comparing dry weight to wet weight. […] For simplicity and because we assumed that the compounds would not be distributed to all fluids, we used 0.5 μl fluid as our measure for calculating drug concentrations in the flies. Further, we assumed a rapid distribution of the compound in the open circulatory system of Drosophila and a slow clearance of the compounds by Malpighian tubules. Therefore, drug concentrations are given as the highest concentrations obtained, in multiples of the MIC.
Plotting of data was performed using GraphPad Prism 5. All in vivo survival plots were created using Kaplan-Meier analysis of pooled data for repetitive experiments. Statistical analysis was carried out with the log rank (Mantel-Cox) test for comparison of survival curves. Experiments with P values of <0.05 were considered to be significant and are stated in Results. Statistical analysis was performed on the counts of CFU per fly for the different treatment groups by using one-way analysis of variance (ANOVA) (Kruskal-Wallis test) with Dunn's multiple-comparison test for comparison of individual groups. Relevant statistical results are stated in Results.

[2] = test system: S. aureus 8325-4; assay: microbe, parasite or virus in culture; assay type: cell-based, Staphylococcus aureus
Method: (§1) S. aureus strains 8325-4 ([35]) and USA300 ([36]) were used as indicated for the individual experiments. Bacterial cultures were grown in cation-adjusted Mueller-Hinton broth (MHB-II) at the indicated temperature.
(§2) MICs of all tested compounds were determined according to protocols using broth microdilution methodology ([46]), with minor modifications. S. aureus was grown in 10 ml MHB-II overnight at 37°C with shaking and then diluted 1:100 in fresh MHB-II and grown to an OD600 of 0.2 to 0.4. Cultures were then diluted 1:10 and grown to an OD600 of 0.2 to 0.4. These steps were performed to ensure balanced exponentially growing cultures as explained above. Finally, cultures were diluted to 1 × 10^6 CFU ml^−1 and further diluted 1:1 in microtiter plates in MHB-II with drug, leading to a final inoculum of 5 × 10^5 CFU ml^−1. MICs were determined in triplicate, and if more than one value was found, the highest was set as the MIC to keep the calculations conservative.

[3] = test system: S. aureus 8325-4; assay: Drosophila injection assay, survival of infected flies; assay type: in vivo, Drosophila melanogaster; details: >1,000× MIC, injection 3 h postinfection, 70-h period
Method: (§3) Injection assays were performed as previously described ([33]) by using a Nanoject-II microinjecter, but with minor modifications in the preparation of bacterial inoculums to obtain balanced cultures, as explained above. Flies were reared on standard Bloomington formulation at 25°C under a 12-h–12-h light-dark cycle and constant humidity. Adult Oregon R male flies (4 to 7 days old) were used for all injection experiments. Initial experiments with strain 8325-4 were performed in duplicate, with groups of 25 to 30 animals in each experiment. For USA300, experiments were performed in triplicate, except for the nisin experiment, which was done only in duplicate. The inoculum was prepared by resuspending cells in 10 mM MgSO4 vehicle (VEH) to an OD600 of 0.06 and was kept on ice, giving an inoculum dose of 100 to 450 CFU (8325-4) or 200 to 700 CFU (USA300) in the flies after injection of 18.4 nl. […] After injection of bacteria, flies were kept at 29°C and monitored for 48 to 96 h to determine mortality. […] It is important that when drug concentrations were calculated, we performed a rough approximation of the fluid content of a fly. Fly fluid content was measured by drying out 10 groups of 50 flies each and comparing dry weight to wet weight. […]

[4] = test system: Drosophila melanogaster; assay: Adverse behavioral response (paralysis) after injection; assay type: in vivo; details: flies injected with high concentrations (data not shown); uncoordinated movements, inability to walk or fly
Method: as §3

[5] = test system: S. aureus USA300 (MRSA); assay: MIC testing, broth microdilution; assay type: cell-based; details: Staphylococcus aureus
Method: as §1, §2

[6] = test system: MRSA USA300; assay: Drosophila injection assay, survival of infected flies; assay type: in vivo, Drosophila melanogaster; details: 10× MIC, 3 h postinfection, 96-h period
Method: as §3

[7] = test system: S. aureus USA300; assay: Bacterial titers (CFU per fly) after treatment; assay type: in vivo, Drosophila melanogaster; details: USA300-infected flies, treatment 3 h postinfection
Method: The growth rates of S. aureus strains were examined at 37°C in vitro to determine the growth period required to obtain balanced cultures, here defined as cultures grown exponentially for no fewer than 6 generations. Prior to injection of bacteria into the in vivo fly model, the inoculums were prepared as balanced cultures grown at 37°C. Since flies used for in vivo infections were kept at 29°C, the bacterial in vitro generation time was also determined at this temperature. In vitro growth rates were defined for growth in MHB-II by measurements of the optical density at 600 nm (OD600) at 10-min intervals. Furthermore, we determined the in vivo generation time based on CFU per animal by counting the CFU at various time points by homogenizing flies infected with bacteria and plating the homogenates on mannitol salt agar (MSA). This was performed in triplicate experiments; 3 individual flies were crushed in phosphate-buffered saline (PBS), and 10× dilution series were prepared, from which 10 μl each was spot plated on MSA in triplicate. The mean value for each experiment was determined as the number of CFU per fly and plotted. […] It should also be noted that drug treatment was performed at 3 h postinfection and that the number of CFU per fly for this time point was determined prior to treatment. […]

[8] = at the concentrations tested, not given
[9] = 8325-4, read-out: MIC (μM) 8325-4
[10] = broth microdilution, MHB-II, final inoculum 5 × 10^5 CFU ml^−1, triplicate, highest value set as MIC
[11] = calculated from MIC in μg ml^−1 with the mol wt of the table, read-out: MIC (μM) 8325-4

SMILES | Effect on survival of control animals [1, 8] | MIC (μg ml^−1) 8325-4 ([2]; 8325-4) [µg/mL] | MIC [2, 9] [µM] | Adverse behavioral response that may indicate neurotoxicity [4] | MIC (μg ml^−1) 8325-4 [2, 10] [µg/mL] | MIC [2, 11] [µM] | also measured
CC(C)C[C@H](NC(=O)[C@H](Cc1c[nH]c2ccccc12)NC(=O)[C@H](Cc1c[nH]c2ccccc12)NC(=O)[C@H](CCCCN)NC(=O)[C@H](Cc1c[nH]c2ccccc12)NC(=O)[C@H](CCCNC(=N)N)NC(=O)[C@H](CCCNC(=N)N)NC(=O)[C@H](Cc1c[nH]c2ccccc12)NC(=O)[C@@H](N)CCCNC(=N)N)C(N)=O [HHC-9] (H-RWRRWKWWL-NH2) | no obvious detrimental effects on survival | 4 (≈ 2.72 µM) | 2.71 | – | – | – | –
CC1(C)S[C@@H]2[C@H](NC(=O)[C@H](N)c3ccccc3)C(=O)N2[C@H]1C(=O)O [Ampicillin, Ampicillin sodium salt, reference compound] | – | – | – | – | – | – | Effect on survival of control animals ([1]; >1,000× MIC, 70-h period): no lethal effects on control animals; Effect on survival of 8325-4-infected flies [3]: efficiently promoted survival; MIC ([2]; Staphylococcus aureus, 83254, broth microdilution, MHB-II, final inoculum 5 × 10^5 CFU ml^−1, triplicate, highest value set as MIC, read-out: MIC (μg ml^−1) 8325-4): 0.01 µg/mL; MIC ([2]; Staphylococcus aureus, 83254, calculated from MIC in μg ml^−1 with the mol wt of the table, read-out: MIC (μM) 8325-4): 2.86 µM
N=C(N)NCCC[C@H](NC(=O)[C@H](CCCNC(=N)N)NC(=O)[C@H](Cc1c[nH]c2ccccc12)NC(=O)[C@H](Cc1c[nH]c2ccccc12)NC(=O)[C@H](CCCCN)NC(=O)[C@H](Cc1c[nH]c2ccccc12)NC(=O)[C@H](Cc1c[nH]c2ccccc12)NC(=O)[C@H](CCCNC(=N)N)NC(=O)[C@@H](N)CCCCN)C(N)=O [HHC-36] (H-KRWWKWWRR-NH2) | no obvious detrimental effects on survival | 8 (≈ 5.38 µM) | 5.38 | – | – | – | –
CC[C@H](C)[C@H](NC(=O)[C@H](Cc1c[nH]c2ccccc12)NC(=O)[C@H](CCCNC(=N)N)NC(=O)[C@H](Cc1c[nH]c2ccccc12)NC(=O)[C@H](Cc1c[nH]c2ccccc12)NC(=O)[C@H](CCCNC(=N)N)NC(=O)[C@H](CCCCN)NC(=O)[C@H](Cc1c[nH]c2ccccc12)NC(=O)[C@@H](N)CCCNC(=N)N)C(N)=O [GN-2] (H-RWKRWWRWI-NH2) | – | – | – | partially paralyzed for up to 10 h postinjection | 8 (≈ 5.44 µM) | 5.43 | –
CC(C)C[C@H](NC(=O)[C@H](Cc1c[nH]c2ccccc12)NC(=O)[C@H](CCCNC(=N)N)NC(=O)[C@H](Cc1c[nH]c2ccccc12)NC(=O)[C@H](Cc1c[nH]c2ccccc12)NC(=O)[C@H](CCCCN)NC(=O)[C@H](CCCCN)NC(=O)[C@H](Cc1c[nH]c2ccccc12)NC(=O)[C@@H](N)CCCNC(=N)N)C(N)=O [GN-4] (H-RWKKWWRWL-NH2) | – | – | – | partially paralyzed for up to 10 h postinjection | 4 (≈ 2.77 µM) | 2.77 | Effect on survival of control animals ([1]; 10× MIC in fly, compared with VEH-injected flies): no detrimental effects on survival of flies
CN[C@H](CC(C)C)C(=O)N[C@H]1C(=O)N[C@@H](CC(N)=O)C(=O)N[C@H]2C(=O)N[C@H]3C(=O)N[C@H](C(=O)N[C@H](C(=O)O)c4cc(O)cc(O)c4-c4cc3ccc4O)[C@H](O)c3ccc(c(Cl)c3)Oc3cc2cc(c3O[C@@H]2O[C@H](CO)[C@@H](O)[C@H](O)[C@H]2O[C@H]2C[C@](C)(N)[C@H](O)[C@H](C)O2)Oc2ccc(cc2Cl)[C@H]1O [Vancomycin, vancomycin hydrochloride] | no adverse effect on survival of control animals | – | – | – | – | – | MIC ([5]; read-out: MIC (μM) USA300): 1.38 µM; MIC ([5]; read-out: MIC (μg ml^−1) USA300): 2 µg/mL; Survival of USA300-infected animals compared with NAI-107 at 100× MIC [6]: equivalent; Bacterial load compared to that with nisin treatment after 24 h [7]: significantly reduced the bacterial load; Proliferation of bacteria inside the animals ([7]; CFU per fly at 0, 3, 12, 24 h on MSA): clearly disrupted the proliferation of bacteria
